# Source: patent US10966978B2, “Dose and regimen for HDM2-p53 interaction inhibitors” (Novartis AG, priority 2016, dated 2021)
# Where two headings read alike, the source gives them in different places.
# Tests used:
# [1] = Clinical PK of HDM201 in patients (non-compartmental and population PK), study HDM201X2101; assay type: in vivo, human; details: for Cmax: read-out: Cmax, Geo Mean (% CV); for AUC(0-t): read-out: AUClast (0-24 h), Geo Mean (% CV); for dose proportionality of PK (AUClast and Cmax): over the dose range studied, single and repeated doses
# Description: Pharmacokinetic data have been evaluated throughout the course of the dose escalation. Two HDM201 drug variants have been evaluated during the course of the study (refer to the protocol for further details). […] Furthermore, an integrated analysis of all available HDM201 concentrations was conducted using a population approach. The PK of HDM201 was best described by a 1-compartment PK model with a delayed zero- and first-order absorption process, and a linear clearance. Body weight was identified as a statistically significant covariate on apparent central volume of distribution (Vc/F), in which Vc/F increased with increasing body weight.
# Inter-patient variability (CV % Geo-mean) in exposure was generally low to moderate. Compartmental population PK modeling of NVP-HDM201 was used to estimate the individual average plasma concentration for Cycle 1 and to allow comparison with preclinical average concentration for tumor stasis derived by PK/PD tumor growth modeling.
# The PK of HDM201 have been evaluated in the ongoing single agent Phase I clinical trial in patients with solid tumors and hematological malignancies (HDM201X2101). Patients have been treated with a single dose on Day 1 in a three-week cycle (q3w, regimen 1A), with a single dose on Day 1 and Day 8 in a four-week cycle (d1 and d8 of 4 w cycle, regimen 1B), or with daily dosing for the first 7 or 14 days in a four-week cycle (regimen 2C [q.d., 1 w on/3 w off] or regimen 2A [q.d., 2 w on/2 w off], respectively). PK assessments were conducted following single dose and repeated administration. Preliminary PK parameters from non-compartmental analysis of plasma concentration-time profiles are summarized by dose regimen and tumor type (data cut-off 1 Apr. 2016). PK parameters for Regimen 2A (Day 1 and 14 of Cycle 1 for doses from 1 to 20 mg) and Regimen 1A (Day 1 of Cycle 1 for doses from 12.5 to 350 mg) in solid tumor patients are summarized as representative of the PK for daily and less frequent dosing regimens (Tables 9, 10 and 11).
# Following oral dosing (HDM201 capsule, fasted), the median time to reach maximum plasma concentrations ranged from 2.0 to 5.8 h across the dose range (2 to 350 mg). With the daily dosing regimen, HDM201 steady-state was generally reached by Day 8, and accumulation was less than 2-fold. […]
# Furthermore, the individual PK data was best described by a 1-compartment PK model with a delayed zero- and first-order absorption process (data cut-off 1 Apr. 2016). […] Body weight was identified as a statistically significant covariate on Vc/F.
# SJSA-1 cell line = test: Cellular activity in SJSA-1 cell line; assay type: cell-based; details: Homo sapiens
# [2] = Regimen 1A 12.5 mg, Day 1 single dose, solid malignancies, N = 1
# [3] = Regimen 1A 25 mg, Day 1 single dose, solid malignancies, N = 1
# [4] = Regimen 1A 50 mg, Day 1 single dose, solid malignancies, N = 4
# [5] = Regimen 1A 100 mg, Day 1 single dose, solid malignancies, N = 4
# [6] = Regimen 1A 200 mg, Day 1 single dose, solid malignancies, N = 5
# [7] = Regimen 2A 1 mg daily, Day 14, solid malignancies, N = 1
# [8] = Regimen 2A 2 mg daily, Day 14, solid malignancies, N = 2
# [9] = Regimen 2A 4 mg daily, Day 14, solid malignancies, N = 3
# [10] = Regimen 2A 15 mg daily, Day 14, solid malignancies, N = 4
# [11] = Regimen 2A 15 mg, Day 1 single dose, solid malignancies, N = 4
# [12] = human, plasma, oral, 7.5 mg, Regimen 2A 7.5 mg daily, Day 14, solid malignancies, N = 2
# [13] = human, plasma, oral, 20 mg, Regimen 2A 20 mg daily, Day 14, solid malignancies, N = 4
# [14] = human, plasma, oral, 20 mg, Regimen 2A 20 mg, Day 1 single dose, solid malignancies, N = 5
# [15] = human, plasma, oral, 250 mg, Regimen 1A 250 mg, Day 1 single dose, solid malignancies, N = 6
# [16] = human, plasma, oral, 350 mg, Regimen 1A 350 mg, Day 1 single dose, solid malignancies, N = 5
compound,measurement,setting,value
"COc1ncc(-c2nc3c(n2C(C)C)[C@H](c2ccc(Cl)cc2)N(c2cc(Cl)cn(C)c2=O)C3=O)c(OC)n1 [HDM201, (S)-5-(5-Chloro-1-methyl-2-oxo-1,2-dihydro-pyridin-3-yl)-6-(4-chloro-phenyl)-2-(2,4-dimethoxy-pyrimidin-5-yl)-1-isopropyl-5,6-dihydro-1H-pyrrolo[3,4-d]imidazol-4-one]","AUClast (0-24 h), Geo Mean (% CV)",[1]; [2],1483.1 ng·h/mL
same,"Cmax, Geo Mean (% CV)",[1]; [2],118.0 ng/mL
same,"T½, Geo Mean (% CV)",[1]; [2],7.2 h
same,"AUClast (0-24 h), Geo Mean (% CV)",[1]; [3],1773.6 ng·h/mL
same,"T½, Geo Mean (% CV)",[1]; [3],31.1 h
same,"AUClast (0-24 h), Geo Mean (% CV)",[1]; [4],8028.8 (25.6) ng * hr/mL
same,"Cmax, Geo Mean (% CV)",[1]; [4],467.0 (13.0) ng/mL
same,"AUClast (0-24 h), Geo Mean (% CV)",[1]; [5],14287.0 (58.5) ng * hr/mL
same,"Cmax, Geo Mean (% CV)",[1]; [5],663.3 (30.1) ng/mL
same,"AUClast (0-24 h), Geo Mean (% CV)",[1]; [6],26255.2 (56.2) ng * hr/mL
same,"Cmax, Geo Mean (% CV)",[1]; [6],1168.8 (43.7) ng/mL
same,"AUClast (0-24 h), Geo Mean (% CV)",[1]; [7],99.5 ng·h/mL
same,"Cmax, Geo Mean (% CV)",[1]; [7],14.9 ng/mL
same,"AUClast (0-24 h), Geo Mean (% CV)","[1]; Regimen 2A 1 mg, Day 1 single dose, solid malignancies, N = 1",134.3 ng·h/mL
same,"AUClast (0-24 h), Geo Mean (% CV)",[1]; [8],109.3 (6.0) ng * hr/mL
same,"Cmax, Geo Mean (% CV)",[1]; [8],17.5 (4.9) ng/mL
same,"AUClast (0-24 h), Geo Mean (% CV)","[1]; Regimen 2A 2 mg, Day 1 single dose, solid malignancies, N = 2",169.1 (31.5) ng * hr/mL
same,"AUClast (0-24 h), Geo Mean (% CV)",[1]; [9],155.0 (21.7) ng * hr/mL
same,"Cmax, Geo Mean (% CV)",[1]; [9],25.6 (23.9) ng/mL
same,"Cmax, Geo Mean (% CV)","[1]; Regimen 2A 4 mg, Day 1 single dose, solid malignancies, N = 4",17.6 (22.8) ng/mL
same,"AUClast (0-24 h), Geo Mean (% CV)","[1]; Regimen 2A 7.5 mg, Day 1 single dose, solid malignancies, N = 4",598.1 (49.8) ng * hr/mL
same,"AUClast (0-24 h), Geo Mean (% CV)",[1]; [10],688.8 (29.2) ng * hr/mL
same,"Cmax, Geo Mean (% CV)",[1]; [10],106.0 (27.9) ng/mL
same,"AUClast (0-24 h), Geo Mean (% CV)",[1]; [11],1301.6 (71.0) ng * hr/mL
same,"Cmax, Geo Mean (% CV)",[1]; [11],91.5 (56.9) ng/mL
same,accumulation upon daily dosing,[1]; daily dosing,limited accumulation
same,accumulation,[1]; daily dosing regimen,less than 2 fold
same,steady-state reached by,[1]; daily dosing regimen,≤ 8 days
same,Tmax,"[1]; human, plasma, oral, 1 mg, Regimen 2A 1 mg daily, Day 14, solid malignancies, N = 1, read-out: Tmax, median",4 h
same,Cmax,"[1]; human, plasma, oral, 1 mg, Regimen 2A 1 mg, Day 1 single dose, solid malignancies, N = 1",0.0079 µg/mL
same,Tmax,"[1]; human, plasma, oral, 1 mg, Regimen 2A 1 mg, Day 1 single dose, solid malignancies, N = 1, read-out: Tmax, median",8 h
same,Tmax,"[1]; human, plasma, oral, 2 mg, Regimen 2A 2 mg daily, Day 14, solid malignancies, N = 2, read-out: Tmax, median",3.9 h
same,Cmax,"[1]; human, plasma, oral, 2 mg, Regimen 2A 2 mg, Day 1 single dose, solid malignancies, N = 2",0.012 µg/mL
same,Tmax,"[1]; human, plasma, oral, 2 mg, Regimen 2A 2 mg, Day 1 single dose, solid malignancies, N = 2, read-out: Tmax, median",3.4 h
same,Tmax,"[1]; human, plasma, oral, 4 mg, Regimen 2A 4 mg daily, Day 14, solid malignancies, N = 3, read-out: Tmax, median",4 h
same,AUC(0-t),"[1]; human, plasma, oral, 4 mg, Regimen 2A 4 mg, Day 1 single dose, solid malignancies, N = 4",0.193 µg·h/mL
same,Tmax,"[1]; human, plasma, oral, 4 mg, Regimen 2A 4 mg, Day 1 single dose, solid malignancies, N = 4, read-out: Tmax, median",2.5 h
same,AUC(0-t),[1]; [12],0.222 µg·h/mL
same,Cmax,[1]; [12],0.0361 µg/mL
same,Tmax,"[1]; human, plasma, oral, 7.5 mg, Regimen 2A 7.5 mg daily, Day 14, solid malignancies, N = 2, read-out: Tmax, median",3.9 h
same,Cmax,"[1]; human, plasma, oral, 7.5 mg, Regimen 2A 7.5 mg, Day 1 single dose, solid malignancies, N = 4",0.039 µg/mL
same,Tmax,"[1]; human, plasma, oral, 7.5 mg, Regimen 2A 7.5 mg, Day 1 single dose, solid malignancies, N = 4, read-out: Tmax, median",5.8 h
same,Tmax,"[1]; human, plasma, oral, 12.5 mg, Regimen 1A 12.5 mg, Day 1 single dose, solid malignancies, N = 1, read-out: Tmax, median",3.2 h
same,Tmax,"[1]; human, plasma, oral, 15 mg, Regimen 2A 15 mg daily, Day 14, solid malignancies, N = 4, read-out: Tmax, median",3 h
same,Tmax,"[1]; human, plasma, oral, 15 mg, Regimen 2A 15 mg, Day 1 single dose, solid malignancies, N = 4, read-out: Tmax, median",3.1 h
same,AUC(0-t),[1]; [13],1.26 µg·h/mL
same,Cmax,[1]; [13],0.214 µg/mL
same,Tmax,"[1]; human, plasma, oral, 20 mg, Regimen 2A 20 mg daily, Day 14, solid malignancies, N = 4, read-out: Tmax, median",4 h
same,AUC(0-t),[1]; [14],2.3 µg·h/mL
same,Cmax,[1]; [14],0.164 µg/mL
same,Tmax,"[1]; human, plasma, oral, 20 mg, Regimen 2A 20 mg, Day 1 single dose, solid malignancies, N = 5, read-out: Tmax, median",2 h
same,Cmax,"[1]; human, plasma, oral, 25 mg, Regimen 1A 25 mg, Day 1 single dose, solid malignancies, N = 1",0.1 µg/mL
same,Tmax,"[1]; human, plasma, oral, 25 mg, Regimen 1A 25 mg, Day 1 single dose, solid malignancies, N = 1, read-out: Tmax, median",2.1 h
same,Tmax,"[1]; human, plasma, oral, 50 mg, Regimen 1A 50 mg, Day 1 single dose, solid malignancies, N = 4, read-out: Tmax, median",3 h
same,half-life,"[1]; human, plasma, oral, 50 mg, Regimen 1A 50 mg, Day 1 single dose, solid malignancies, N = 4, read-out: T½, Geo Mean (% CV) (converted)",11.8 h
same,half-life,"[1]; human, plasma, oral, 100 mg, Regimen 1A 100 mg, Day 1 single dose, solid malignancies, N = 3, read-out: T½, Geo Mean (% CV) (converted)",16.3 h
same,Tmax,"[1]; human, plasma, oral, 100 mg, Regimen 1A 100 mg, Day 1 single dose, solid malignancies, N = 4, read-out: Tmax, median",3.5 h
same,half-life,"[1]; human, plasma, oral, 200 mg, Regimen 1A 200 mg, Day 1 single dose, solid malignancies, N = 4, read-out: T½, Geo Mean (% CV) (converted)",15.1 h
same,Tmax,"[1]; human, plasma, oral, 200 mg, Regimen 1A 200 mg, Day 1 single dose, solid malignancies, N = 5, read-out: Tmax, median",3 h
same,half-life,"[1]; human, plasma, oral, 250 mg, Regimen 1A 250 mg, Day 1 single dose, solid malignancies, N = 5, read-out: T½, Geo Mean (% CV) (converted)",15.3 h
same,AUC(0-t),[1]; [15],23.9 µg·h/mL
same,Cmax,[1]; [15],1.07 µg/mL
same,Tmax,"[1]; human, plasma, oral, 250 mg, Regimen 1A 250 mg, Day 1 single dose, solid malignancies, N = 6, read-out: Tmax, median",3.5 h
same,half-life,"[1]; human, plasma, oral, 350 mg, Regimen 1A 350 mg, Day 1 single dose, solid malignancies, N = 4, read-out: T½, Geo Mean (% CV) (converted)",15.1 h
same,AUC(0-t),[1]; [16],50.5 µg·h/mL
same,Cmax,[1]; [16],1.94 µg/mL
same,Tmax,"[1]; human, plasma, oral, 350 mg, Regimen 1A 350 mg, Day 1 single dose, solid malignancies, N = 5, read-out: Tmax, median",4.1 h
same,half-life,"[1]; human, plasma, oral, after Day 1 single dose (50-350 mg), read-out: Median half-life",13.7 to 23.1 h
same,half-life,"[1]; human, plasma, oral, after a single dose (50 to 350 mg), read-out: Mean T½",11.8 to 16.3 h
same,Vd/F,"[1]; human, plasma, oral, population PK, 1-compartment model, read-out: apparent volume of distribution of the central compartment (Vc/F), mean population estimate",119 L
same,Tmax,"[1]; human, plasma, po, across dose range 2 to 350 mg, read-out: median time to reach maximum plasma concentrations (Tmax)",2 to 5.8 h
same,dose proportionality of PK (AUClast and Cmax),[1],approximately dose proportional
same,dose proportionality of PK (AUClast and Cmax),[1]; listed as NVP-HDM201,no major deviations from dose proportionality
same,inter-individual variability of CL/F,[1]; population PK,48%
same,inter-individual variability of Vc/F,[1]; population PK,30%
same,"apparent oral clearance (CL/F), mean population estimate","[1]; population PK, 1-compartment model",6.18 L/h
same,patients with estimated average concentration per cycle near or above tumor stasis concentration,"[1]; regimen 1B 120 mg, out of 9 patients",7
same,IC50,SJSA-1 cell line,0.0294 mg/L
